Measured values as given in ChEMBL document CHEMBL1201862, “PubChem BioAssay data set” (2004).
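Protocol summary: plate cells (96-well), add compound at 5 concentrations, incubate 48 h, interpolate endpoints linearly. Here, GI50 denotes the concentration required for 50% inhibition of growth.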 Activity calls are given as the source filed them. Cut-off read from the data, not from the text of the source: active = GI50 up to about 1.1 µM and inactive = higher.

Tests used:
Assay in all cases: NCI tumour cell line growth inhibition, 48 h
[1] = system: SNB-75
[2] = system: HL-60
[3] = system: TK-10
[4] = system: IGROV-1
[5] = system: MDA-MB-435
[6] = system: UACC-257
[7] = system: HCT-15
[8] = system: RPMI-8226
[9] = system: K562
[10] = system: T47D
[11] = system: SK-MEL-28
[12] = system: M14
[13] = system: NCI/ADR-RES
[14] = system: SW-620
[15] = system: HCT-116
[16] = system: NCI-H23
[17] = system: SF-268
[18] = system: SN12C

Compound | GI50 [1] | GI50 [2] | GI50 [3] | GI50 [4] | GI50 [5] | GI50 [6] | GI50 [7] [µM] | GI50 [8] | GI50 [9] | GI50 [10] | GI50 [11] | GI50 [12] | GI50 [13] | GI50 [14] | GI50 [15] | GI50 [16] | GI50 [17] | GI50 [18]
O=C1c2ccccc2CCC1C(O)(C(F)(F)F)C(F)(F)F (configuration not stated) | 26.2 µM (inactive) | > 10 µM (inactive) | > 100 µM (inactive) | > 100 µM (inactive) | > 100 µM (inactive) | > 100 µM (inactive) | 63 | > 100 µM (inactive) | > 100 µM (inactive) | 44.3 µM (inactive) | > 100 µM (inactive) | > 100 µM (inactive) | > 100 µM (inactive) | > 100 µM (inactive) | > 100 µM (inactive) | > 100 µM (inactive) | – | –
CC(C)(O)C1COC2=C1C(=O)c1ccccc1C2=O (configuration not stated) | 19.8 µM (inactive) | 18.9 µM (inactive) | – | 40.6 µM (inactive) | 23.3 µM (inactive) | 71.9 µM (inactive) | 27.5 | 44.8 µM (inactive) | 35.2 µM (inactive) | 33.4 µM (inactive) | 23.2 µM (inactive) | 35.6 µM (inactive) | 19.1 µM (inactive) | 23 µM (inactive) | 25.3 µM (inactive) | 18.2 µM (inactive) | 21.6 µM (inactive) | 27.8 µM (inactive)
C=C(C(=O)O)[C@@H]1C[C@@H](OC(C)=O)[C@]2(C)CC/C=C(\C)CCC[C@H](C)[C@H](O)[C@@H]1O2 | 74.8 µM (inactive) | 22.3 µM (inactive) | 57.4 µM (inactive) | 36.8 µM (inactive) | 24.2 µM (inactive) | 47 µM (inactive) | 41.8 | 17 µM (inactive) | 75.2 µM (inactive) | > 100 µM (inactive) | 77.4 µM (inactive) | 28.2 µM (inactive) | 33.3 µM (inactive) | 40.1 µM (inactive) | 52.8 µM (inactive) | – | > 100 µM (inactive) | 60.4 µM (inactive)
CC(Br)CN1CCOCC1 (configuration not stated) | – | 10.5 µM (inactive) | > 100 µM (inactive) | > 100 µM (inactive) | > 100 µM (inactive) | > 100 µM (inactive) | > 100 | > 100 µM (inactive) | 50 µM (inactive) | > 100 µM (inactive) | > 100 µM (inactive) | > 100 µM (inactive) | > 100 µM (inactive) | > 100 µM (inactive) | > 100 µM (inactive) | > 100 µM (inactive) | > 100 µM (inactive) | > 100 µM (inactive)
Cc1cc2nc(N3C(=O)/C(=C/Cc4ccco4)N=C3c3ccccc3)sc2cc1C | 17.7 µM (inactive) | 23 µM (inactive) | 84.1 µM (inactive) | 21.3 µM (inactive) | 7.53 µM (inactive) | 26 µM (inactive) | 30.5 | 23.7 µM (inactive) | 22.8 µM (inactive) | 31 µM (inactive) | 64.6 µM (inactive) | 35.6 µM (inactive) | 27.6 µM (inactive) | 31.3 µM (inactive) | 17 µM (inactive) | – | 40.4 µM (inactive) | 25.6 µM (inactive)
Cn1c(=O)c2c(nc3sc4nc5ccccc5nc4n32)n(C)c1=O | 34.8 µM (inactive) | > 100 µM (inactive) | > 100 µM (inactive) | > 100 µM (inactive) | > 100 µM (inactive) | > 100 µM (inactive) | > 100 | > 100 µM (inactive) | > 100 µM (inactive) | > 100 µM (inactive) | – | > 100 µM (inactive) | > 100 µM (inactive) | – | > 100 µM (inactive) | > 100 µM (inactive) | > 100 µM (inactive) | 85.9 µM (inactive)
Cc1ccc([S+]([O-])C[C@](NC(=O)OCc2ccccc2)(Sc2ccccc2)C(F)F)cc1 (some centres not stated) | 13.2 µM (inactive) | 4.12 µM (inactive) | 20.3 µM (inactive) | 8.69 µM (inactive) | 29.7 µM (inactive) | 15 µM (inactive) | 17.1 | 10.4 µM (inactive) | 10.2 µM (inactive) | 10.5 µM (inactive) | 18 µM (inactive) | 33.3 µM (inactive) | 17 µM (inactive) | 19.6 µM (inactive) | 16.3 µM (inactive) | 17.7 µM (inactive) | 16.9 µM (inactive) | –
